Earlier results on 2 substances are cited in patent US20200188436A1, “Compositions and Methods for Cancer Immunotherapy” (The UAB Research Foundation, priority 2016, published 2020).

The test system of series [1] is diffuse large B-cell lymphoma (DLBCL). As to conditions: phase II, DLBCL after autologous stem cell transplantation; preliminary results.
The subject of the next series is recurrent multifocal GBM. The following applies: two pediatric patients, refractory to standard therapies, single agent.

For the substance “CT-011: humanized IgG1 monoclonal antibody against PD-1”, in series [1], the subjects alive is recorded as 82% and the “subjects progression-free at the end of the follow-up period” value was 70%.

In the case of “nivolumab: immune checkpoint inhibitor, anti-PD1 antibody”, in the series on recurrent multifocal GBM, the clinical response entry was “remarkable and durable responses”.
